In one data set the test system is P-388 leukemia cells. The experiment in a line: Antitumor activity: P-388 leukemia cells inoculated intraperitoneally, drug administered intravenously, BDF1 mice. The class given is in vivo. To be noted: BDF1 mice, P-388 i.p.; for response vs control in vivo at 80 mg/kg: dose f: 80 mg/kg × 3, i.v. on days 1, 5 and 9; for response vs control in vivo at 20 mg/kg: dose b: 20 mg/kg × 3, i.v. on days 1, 5 and 9; for response vs control in vivo at 50 mg/kg: dose d: 50 mg/kg × 3, i.v. on days 1, 5 and 9. An outline of the steps:
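Drug dosing was intravenous on the first, fifth and ninth days after intraperitoneal inoculation of P-388 leukemia cells (1×10^6 per mouse) into BDF1 mice. Vehicles were physiological saline alone, or saline with small amounts of sodium carboxymethyl cellulose or Tween-80.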

A short description of data set [1]: Acute toxicity, intravenous (once), ddY mice. The class given is in vivo. To be noted: mouse, in vivo, iv, formulated per Preparation Example. The text has this:
In Table 7 are shown acute toxicity values (LD50, mg/kg) in ddY mice in the case of intravenously administering (once) each of the compounds of this invention in the form of preparations shown in the Preparation Examples shown in Table 7.

The mark [2] stands for this setting: Mus musculus, P388, iv, read-out: T/C (%) of MST.
The mark [3] stands for this setting: Mus musculus, P388, iv, dose c: 40 mg/kg × 3, i.v. on days 1, 5 and 9, read-out: T/C (%) of MST.

The values below come from US4760136A, “Chartreusin derivatives and salts thereof” (Ishihara Sangyo Kaisha, Ltd., priority 1984, dated 1988).

Structures are written as SMILES.

Take `COC1C(O)C(C)OC(OC2C(Oc3cccc4c(OC(=O)CC(C)NC(=O)C(F)(F)F)c5c(=O)oc6ccc(C)c7c(=O)oc(c34)c5c67)OC(C)C3OC(c4ccccc4Cl)OC32)C1O` (centres unmarked) [compound 94]: the response vs control in vivo at 80 mg/kg in the data set on P-388 leukemia cells (setting [2]) came to 183%. In data set [1], this compound yielded an LD50 of at least 80 mg/kg.
In the case of `COc1ccc(C2OC3C(C)OC(Oc4cccc5c(OC(=O)CCNC=O)c6c(=O)oc7ccc(C)c8c(=O)oc(c45)c6c78)C(OC4OC(C)C(O)C(OC)C4O)C3O2)cc1` (centres unmarked) [compound 95], the response vs control in vivo at 40 mg/kg in the data set on P-388 leukemia cells (setting [3]) stood at 173%. The compound further came in with an LD50 in data set [1] of at least 40 mg/kg.
For `COc1ccc(C2OC3C(C)OC(Oc4cccc5c(OC(=O)CCNC(=O)c6ccccc6)c6c(=O)oc7ccc(C)c8c(=O)oc(c45)c6c78)C(OC4OC(C)C(O)C(OC)C4O)C3O2)cc1` (centres unmarked) [compound 96] the same measures were 162% and at least 40 mg/kg.
Take `COC1C(O)C(C)OC(OC2C(Oc3cccc4c(OC(=O)CCCCCNC(=O)C(F)(F)F)c5c(=O)oc6ccc(C)c7c(=O)oc(c34)c5c67)OC(C)C3OC(c4ccc(F)cc4)OC32)C1O` (centres unmarked) [compound 97]: the response vs control in vivo at 20 mg/kg in the data set with P-388 leukemia cells (setting [2]) turned out to be 156%. Further, the LD50 in data set [1] is at least 30 mg/kg.
`COC1C(O)C(C)OC(OC2C(Oc3cccc4c(OC(=O)CCCCCNC(=O)C(F)(F)F)c5c(=O)oc6ccc(C)c7c(=O)oc(c34)c5c67)OC(C)C3OC(C)(C)OC32)C1O` (centres unmarked) [compound 98]: the response vs control in vivo at 80 mg/kg in the data set with P-388 leukemia cells (setting [2]) was 187%. This compound registered a 50% lethal dose (LD50) in data set [1] of at least 100 mg/kg.
With `COC1C(O)C(C)OC(OC2C(Oc3cccc4c(OC(=O)CCCCCCCNC(=O)C(F)(F)F)c5c(=O)oc6ccc(C)c7c(=O)oc(c34)c5c67)OC(C)C3OC(C)(C)OC32)C1O` (centres unmarked) [compound 99], the response vs control in vivo at 80 mg/kg with P-388 leukemia cells (setting [2]) was 136%. The same compound came in with an LD50 in data set [1] of at least 100 mg/kg.
As for `CCC1OC2C(C)OC(Oc3cccc4c(OC(=O)CCNC(=O)C(F)(F)F)c5c(=O)oc6ccc(C)c7c(=O)oc(c34)c5c67)C(OC3OC(C)C(O)C(OC)C3O)C2O1` (centres unmarked) [compound 100], the response vs control in vivo at 80 mg/kg in the data set on P-388 leukemia cells (setting [2]) was 157%. The compound further registered an LD50 in data set [1] of at least 180 mg/kg.
Take `COC1C(O)C(C)OC(OC2C(Oc3cccc4c(OC(=O)C(Cc5c[nH]c6ccccc56)NC(=O)OCc5ccccc5)c5c(=O)oc6ccc(C)c7c(=O)oc(c34)c5c67)OC(C)C3OC(c4cccc(C(F)(F)F)c4)OC32)C1O` (centres unmarked) [compound 101]: in the data set on P-388 leukemia cells (setting [3]), the response vs control in vivo at 40 mg/kg was 171%. For the same compound, in the data set with P-388 leukemia cells (setting [2]), the response vs control in vivo at 80 mg/kg worked out at 225%. Besides, in data set [1], the LD50 was at least 80 mg/kg.
As for `COC1C(O)C(C)OC(OC2C(Oc3cccc4c(OC(=O)C(CC[S+](C)[O-])NC(=O)OCc5ccccc5)c5c(=O)oc6ccc(C)c7c(=O)oc(c34)c5c67)OC(C)C3OC(C)(C)OC32)C1O` (centres unmarked) [compound 102], the response vs control in vivo at 80 mg/kg with P-388 leukemia cells (setting [2]) was 187%. The LD50 in data set [1] is at least 100 mg/kg.
The corresponding values for `COC1C(O)C(C)OC(OC2C(Oc3cccc4c(OC(=O)C(NC(=O)OCc5ccccc5)C(C)C)c5c(=O)oc6ccc(C)c7c(=O)oc(c34)c5c67)OC(C)C3OC(c4ccccc4Cl)OC32)C1O` (centres unmarked) [compound 105] are 216% and at least 80 mg/kg.
In the case of `COC1C(O)C(C)OC(OC2C(Oc3cccc4c(OC(=O)C(NC(=O)OCc5ccccc5)C(C)C)c5c(=O)oc6ccc(C)c7c(=O)oc(c34)c5c67)OC(C)C3OC(c4ccccc4)OC32)C1O` (centres unmarked) [compound 106], the response vs control in vivo at 20 mg/kg in the data set with P-388 leukemia cells (setting [2]) turned out to be 173%. The compound also returned an LD50 in data set [1] of at least 40 mg/kg.
Regarding `COC1C(O)C(C)OC(OC2C(Oc3cccc4c(OC(=O)CCNC(=O)OCc5ccccc5)c5c(=O)oc6ccc(C)c7c(=O)oc(c34)c5c67)OC(C)C3OC(C)(C)OC32)C1O` (centres unmarked) [compound 107], the response vs control in vivo at 40 mg/kg in the data set on P-388 leukemia cells (setting [3]) came out at 139%. Further, the response vs control in vivo at 80 mg/kg in the data set on P-388 leukemia cells (setting [2]) was 185%. The same compound gave an LD50 in data set [1] of at least 100 mg/kg.
In the case of `COC1C(O)C(C)OC(OC2C(Oc3cccc4c(OC(=O)CNC(=O)OCc5ccccc5)c5c(=O)oc6ccc(C)c7c(=O)oc(c34)c5c67)OC(C)C3OC(C)(C)OC32)C1O` (centres unmarked) [compound 108, 6-O-(N-carbobenzyloxyglycyl)-3',4'-O-isopropylidene-chartreusin], the response vs control in vivo at 50 mg/kg in the data set on P-388 leukemia cells (setting [2]) is 163%. Further, the LD50 in data set [1] was at least 100 mg/kg.
In the case of `COC1C(O)C(C)OC(OC2C(Oc3cccc4c(OC(=O)CCCNC(=O)OCc5ccccc5)c5c(=O)oc6ccc(C)c7c(=O)oc(c34)c5c67)OC(C)C3OC(C)(C)OC32)C1O` (centres unmarked) [compound 109], in the data set with P-388 leukemia cells (Mus musculus, P388, iv, dose e: 60 mg/kg × 3, i.v. on days 1, 5 and 9, read-out: T/C (%) of MST), the response vs control in vivo at 60 mg/kg was 145%. Also, in data set [1], the median lethal dose (LD50) is at least 100 mg/kg.
Regarding `COC1C(O)C(C)OC(OC2C(Oc3cccc4c(OC(=O)CCNC=O)c5c(=O)oc6ccc(C)c7c(=O)oc(c34)c5c67)OC(C)C3OC(c4c(F)c(F)c(F)c(F)c4F)OC32)C1O` (centres unmarked) [compound 113], the response vs control in vivo at 40 mg/kg in the data set with P-388 leukemia cells (setting [3]) was found to be 138%. The compound further showed an LD50 in data set [1] of at least 40 mg/kg.
As to `COC1C(O)C(C)OC(OC2C(Oc3cccc4c(OC(=O)C(NC(=O)CNC(=O)CNC(=O)OCc5ccccc5)C(C)C)c5c(=O)oc6ccc(C)c7c(=O)oc(c34)c5c67)OC(C)C3OC(c4ccccc4)OC32)C1O` (centres unmarked) [compound 115], in the data set on P-388 leukemia cells (setting [2]), the response vs control in vivo at 20 mg/kg came out at 135%. This compound had an LD50 in data set [1] of at least 40 mg/kg.
For the compound `COC1C(O)C(C)OC(OC2C(Oc3cccc4c(OC(=O)CNC(=O)CNC(=O)CNC(=O)OCc5ccccc5)c5c(=O)oc6ccc(C)c7c(=O)oc(c34)c5c67)OC(C)C3OC(c4cccc(F)c4)OC32)C1O` (centres unmarked) [compound 116], the response vs control in vivo at 40 mg/kg in the data set on P-388 leukemia cells (setting [3]) is 130%. The LD50 in data set [1] is at least 30 mg/kg.
For `COC1C(O)C(C)OC(OC2C(Oc3cccc4c(OC(=O)CCCCCNC(=O)OCc5ccccc5)c5c(=O)oc6ccc(C)c7c(=O)oc(c34)c5c67)OC(C)C3OC(c4ccccc4)OC32)C1O` (centres unmarked) [compound 119], the “T/C (%) of MST” value in the data set on P-388 leukemia cells (dose c: 40 mg/kg × 3, i.v. on days 1, 5 and 9) was 153%. Also, the LD50 in data set [1] was at least 40 mg/kg.
`COC1C(O)C(C)OC(OC2C(Oc3cccc4c(OC(=O)CCNC=O)c5c(=O)oc6ccc(C)c7c(=O)oc(c34)c5c67)OC(C)C3OC(c4cccc([N+](=O)[O-])c4)OC32)C1O` (centres unmarked) [compound 120]: the response vs control in vivo at 40 mg/kg in the data set with P-388 leukemia cells (setting [3]) came to 148%. In data set [1], this compound displayed an LD50 of at least 40 mg/kg.
For `COC1C(O)C(C)OC(OC2C(Oc3cccc4c(OC(=O)C(Cc5c[nH]c6ccccc56)NC(=O)OCc5ccccc5)c5c(=O)oc6ccc(C)c7c(=O)oc(c34)c5c67)OC(C)C3OC(c4ccccc4)OC32)C1O` (centres unmarked) [compound 121] the same measures were 146% and at least 40 mg/kg.
For `COC1C(O)C(C)OC(OC2C(Oc3cccc4c(OC(=O)C(Cc5ccccc5)NC(=O)OCc5ccccc5)c5c(=O)oc6ccc(C)c7c(=O)oc(c34)c5c67)OC(C)C3OC(c4ccccc4)OC32)C1O` (centres unmarked) [compound 122] the same measures were 135% and at least 40 mg/kg.
For `COC1C(O)C(C)OC(OC2C(Oc3cccc4c(OC(=O)CCNC(=O)c5ccccc5)c5c(=O)oc6ccc(C)c7c(=O)oc(c34)c5c67)OC(C)C3OC(c4ccc(Br)cc4)OC32)C1O` (centres unmarked) [compound 123], in the data set on P-388 leukemia cells (setting [3]), the response vs control in vivo at 40 mg/kg is 135%. The same compound displayed an LD50 in data set [1] of at least 40 mg/kg.
Take `COC1C(O)C(C)OC(OC2C(Oc3cccc4c(OC(=O)C(NC(=O)OCc5ccccc5)C(C)C)c5c(=O)oc6ccc(C)c7c(=O)oc(c34)c5c67)OC(C)C3OC(C)(C)OC32)C1O` (centres unmarked) [compound 125]: in the data set on P-388 leukemia cells (setting [2]), the response vs control in vivo at 50 mg/kg is 140%. The LD50 in data set [1] is at least 100 mg/kg.
Turning to `COC1C(O)C(C)OC(OC2C(Oc3cccc4c(OC(=O)C(Cc5c[nH]c6ccccc56)NC(=O)OCc5ccccc5)c5c(=O)oc6ccc(C)c7c(=O)oc(c34)c5c67)OC(C)C3OC(C)(C)OC32)C1O` (centres unmarked) [compound 126], the response vs control in vivo at 80 mg/kg with P-388 leukemia cells (setting [2]) came out at 150%. The same compound displayed a median lethal dose (LD50) in data set [1] of at least 100 mg/kg.

Usually LD50 stands for the dose expected to kill half of the subjects tested.
